Laboratory results as given in patent publication US20120010173A1 (SEPS PHARMA N.V., priority 2009, published 2012).

Key:
[1] = Chemical stability in pharmaceutical solvents (weight % remaining in solution, LCMS); format: physicochemical
Protocol: (§1) Table 4 provides the chemical stability data in some pharmaceutical solvents, expressed as the weight percentage (% w/w) of the final fosfluconazole derivative produced and characterized in example 1 that remained in solution after a certain period of time. The test was carried out twice, and the remaining weight % was determined by Liquid Chromatography-Mass Spectrometry (LCMS).
as §1, with “5” for “4”, “solvents at 25° C.,” for “solvents,”, “2” for “1”
as §1, with “6” for “4”, “solvents at 25° C.,” for “solvents,”, “3” for “1”
as §1, with “7” for “4”, “4” for “1”
as §1, with “8” for “4”, “5” for “1”
as §1, with “9” for “4”, “6” for “1”
as §1, with “10” for “4”, “14” for “1”

[2] = Solubility of fosfluconazole derivatives in pharmaceutical solvents (Table 2); format: physicochemical; conditions: thermodynamic from solid
Protocol: The solubility determination method used was as follows: a suspension of 6 mg of the tested fosfluconazole derivative in 500 μl of the applicable pharmaceutical solvent was rotatively shaken for 24 hours at 800 rpm at 25° C. The saturated fosfluconazole derivative solution was filtered (0.45 μm) and 150 μl of the filtrate was diluted in dimethylsulfoxide (50 μl DMSO). This solution was assayed, each assay being carried out in three-fold, by measurement with Liquid Chromatography-Mass Spectrometry (LCMS, 1 μl and 10 μl injection). Standards were prepared by dissolving the corresponding fosfluconazole derivative in DMSO (1 mg/ml). To determine the solubility, four aliquots (0.5, 1, 2, 4 μl) of the standard solution were injected using the same LCMS conditions as for the above exemplary samples.

[3] = H2O/Kleptose HPB (60/40), 4 hours
[4] = H2O/Kleptose HPB (60/40), 1 day
[5] = H2O/Kleptose HPB (60/40), 2 days
[6] = H2O/Kleptose HPB (60/40), 7 days
[7] = H2O/Kleptose HPB (60/40), 14 days
[8] = aqueous with cosolvent or surfactant or cyclodextrin, H2O/Cremophor RH 40 (80/20), 25° C.
[9] = aqueous with cosolvent or surfactant or cyclodextrin, H2O/Kleptose HPB (60/40), 25° C.
[10] = aqueous with cosolvent or surfactant or cyclodextrin, H2O/Vitamin E TPGS (90/10), 25° C.
[11] = aqueous with cosolvent or surfactant or cyclodextrin, H2O/polysorbate 80 (80/20), 25° C.
[12] = oil or lipid, Miglyol 812, 25° C.
[13] = organic solvent or mixture, PEG 400, 25° C.
[14] = water (pH 2), aqueous buffer, H2O (pH = 2), 25° C.
[15] = water (pH 7), aqueous buffer, H2O (pH = 7), 25° C.
[16] = water (pH 10), aqueous buffer, H2O (pH = 10), 25° C.

| SMILES | weight percentage that remained in solution ([1]; H2O (pH = 7), 4 hours) [% w/w] | weight percentage that remained in solution ([1]; H2O (pH = 7), 1 day) [% w/w] | weight percentage that remained in solution ([1]; H2O (pH = 7), 2 days) [% w/w] | weight percentage that remained in solution ([1]; H2O (pH = 7), 7 days) [% w/w] | weight percentage that remained in solution ([1]; H2O (pH = 7), 14 days) [% w/w] | weight percentage that remained in solution ([1]; H2O (pH = 10), 4 hours) [% w/w] | weight percentage that remained in solution ([1]; H2O (pH = 10), 1 day) [% w/w] | weight percentage that remained in solution ([1]; H2O (pH = 10), 2 days) [% w/w] | weight percentage that remained in solution ([1]; H2O (pH = 10), 7 days) [% w/w] | weight percentage that remained in solution ([1]; H2O (pH = 10), 14 days) [% w/w] | weight percentage that remained in solution [1, 3] [% w/w] | weight percentage that remained in solution [1, 4] [% w/w] | weight percentage that remained in solution [1, 5] [% w/w] | weight percentage that remained in solution [1, 6] [% w/w] | weight percentage that remained in solution [1, 7] [% w/w] | weight percentage that remained in solution ([1]; PEG 400, 4 hours) [% w/w] | weight percentage that remained in solution ([1]; PEG 400, 1 day) [% w/w] | weight percentage that remained in solution ([1]; PEG 400, 2 days) [% w/w] | weight percentage that remained in solution ([1]; PEG 400, 7 days) [% w/w] | weight percentage that remained in solution ([1]; PEG 400, 14 days) [% w/w] | further results |
| --- | --- | --- | --- | --- | --- | --- | --- | --- | --- | --- | --- | --- | --- | --- | --- | --- | --- | --- | --- | --- | --- |
| C[N+](C)(C)CCOP(=O)([O-])OC(Cn1cncn1)(Cn1cncn1)c1ccc(F)cc1F [Example 1, 2-(2,4-difluorophenyl)-1,3-di(1H-1,2,4-triazol-1-yl)propan-2-yl 2-(trimethylammonio)-ethyl phosphate] | 99.6 | 99.6 | 54.7 | 99.6 | 99.6 | 99.8 | 100.0 | 99.7 | 100.0 | 100.0 | 99.3 | 98.8 | 98.8 | 98.6 | 99.1 | 99.8 | 100.0 | 99.8 | 99.9 | 100.0 | weight percentage that remained in solution ([1]; H2O (pH = 2), 4 hours): 99.9 % w/w; weight percentage that remained in solution ([1]; H2O (pH = 2), 1 day): 100.0 % w/w; weight percentage that remained in solution ([1]; H2O (pH = 2), 2 days): 99.4 % w/w; weight percentage that remained in solution ([1]; H2O (pH = 2), 7 days): 99.4 % w/w; weight percentage that remained in solution ([1]; H2O (pH = 2), 14 days): 99.2 % w/w; solubility at 24 h [2, 8]: > 10000 µg/mL; solubility at 24 h [2, 9]: 4200 µg/mL; solubility at 24 h [2, 10]: 7400 µg/mL; solubility at 24 h [2, 11]: 8300 µg/mL; solubility at 24 h [2, 12]: 400 µg/mL; solubility at 24 h [2, 13]: > 10000 µg/mL; solubility at 24 h [2, 14]: > 10000 µg/mL; solubility at 24 h [2, 15]: 6800 µg/mL; solubility at 24 h [2, 16]: 7500 µg/mL |
| CCCCCCCCCC(=O)OCCOP(=O)([O-])OC(Cn1cncn1)(Cn1cncn1)c1ccc(F)cc1F.[Na+] [Example 2, sodium 2-(decanoyloxy)ethyl 2-(2,4-difluorophenyl)-1,3-di(1H-1,2,4-triazol-1-yl)propan-2-yl phosphate] | 97.8 | 97.7 | 98.0 | 97.8 | 97.9 | 94.6 | 98.0 | 96.8 | 96.8 | 99.2 | 98.0 | 98.0 | 98.2 | 97.7 | 98.0 | 97.7 | 97.9 | 98.1 | 98.0 | 98.7 | weight percentage that remained in solution ([1]; H2O (pH = 2), 4 hours): 97.8 % w/w; weight percentage that remained in solution ([1]; H2O (pH = 2), 1 day): 97.7 % w/w; weight percentage that remained in solution ([1]; H2O (pH = 2), 2 days): 96.8 % w/w; weight percentage that remained in solution ([1]; H2O (pH = 2), 7 days): 96.7 % w/w; weight percentage that remained in solution ([1]; H2O (pH = 2), 14 days): 100.0 % w/w; solubility at 24 h [2, 8]: > 10000 µg/mL; solubility at 24 h [2, 9]: > 10000 µg/mL; solubility at 24 h [2, 10]: > 10000 µg/mL; solubility at 24 h [2, 11]: > 10000 µg/mL; solubility at 24 h [2, 12]: 5000 µg/mL; solubility at 24 h [2, 13]: > 10000 µg/mL; solubility at 24 h [2, 14]: 6900 µg/mL; solubility at 24 h [2, 15]: > 10000 µg/mL; solubility at 24 h [2, 16]: > 10000 µg/mL |
| CCCCCCCCCOCCOP(=O)([O-])OC(Cn1cncn1)(Cn1cncn1)c1ccc(F)cc1F.[Na+] [Example 3, sodium 2-(2,4-difluorophenyl)-1,3-di(1H-1,2,4-triazol-1-yl)propan-2-yl 2-(nonyloxy)ethyl phosphate] | 94.8 | 94.7 | 95.0 | 94.8 | 95.1 | 94.8 | 94.8 | 95.0 | 95.0 | 95.2 | 95.0 | 94.9 | 94.7 | 95.0 | 95.2 | 95.0 | 94.9 | 95.0 | 95.0 | 95.1 | weight percentage that remained in solution ([1]; H2O (pH = 2), 4 hours): 94.8 % w/w; weight percentage that remained in solution ([1]; H2O (pH = 2), 1 day): 94.6 % w/w; weight percentage that remained in solution ([1]; H2O (pH = 2), 2 days): 95.0 % w/w; weight percentage that remained in solution ([1]; H2O (pH = 2), 7 days): 95.0 % w/w; weight percentage that remained in solution ([1]; H2O (pH = 2), 14 days): 95.0 % w/w; solubility at 24 h [2, 8]: > 10000 µg/mL; solubility at 24 h [2, 9]: > 10000 µg/mL; solubility at 24 h [2, 10]: > 10000 µg/mL; solubility at 24 h [2, 11]: > 10000 µg/mL; solubility at 24 h [2, 12]: 2600 µg/mL; solubility at 24 h [2, 13]: > 10000 µg/mL; solubility at 24 h [2, 14]: > 10000 µg/mL; solubility at 24 h [2, 15]: > 10000 µg/mL; solubility at 24 h [2, 16]: > 10000 µg/mL |
| CCCCCCCCCC(=O)OCC(COP(=O)([O-])OC(Cn1cncn1)(Cn1cncn1)c1ccc(F)cc1F)OC(=O)CCCCCCCCC.[Na+] (centres unmarked) [Example 4, sodium 2,3-bis(decanoyloxy)propyl 2-(2,4-difluorophenyl)-1,3-di(1H-1,2,4-triazol-1-yl)propan-2-yl phosphate] | 95.2 | 95.3 | 95.5 | 95.6 | 95.4 | 45.5 | 44.8 | 41.3 | 39.4 | 37.1 | 95.1 | 95.3 | 95.3 | 94.2 | 87.7 | 96.8 | 95.9 | 96.7 | 96.6 | 97.3 | solubility at 24 h [2, 8]: > 10000 µg/mL; solubility at 24 h [2, 9]: > 10000 µg/mL; solubility at 24 h [2, 10]: > 10000 µg/mL; solubility at 24 h [2, 11]: > 10000 µg/mL; solubility at 24 h [2, 12]: > 10000 µg/mL; solubility at 24 h [2, 13]: 9000 µg/mL; solubility at 24 h [2, 14]: < 1000 µg/mL; solubility at 24 h [2, 15]: 9900 µg/mL; solubility at 24 h [2, 16]: > 10000 µg/mL |
